The values that follow come from ChEMBL document CHEMBL6103549, “PRMT7 in cancer: Structure, effects, and therapeutic potentials” (Eur J Med Chem, 2025).

The target in experiment [1] is T1, Protein arginine N-methyltransferase 7 (Homo sapiens, UniProt Q9NVM4).
T1 sequence (Q9NVM4 whole entry): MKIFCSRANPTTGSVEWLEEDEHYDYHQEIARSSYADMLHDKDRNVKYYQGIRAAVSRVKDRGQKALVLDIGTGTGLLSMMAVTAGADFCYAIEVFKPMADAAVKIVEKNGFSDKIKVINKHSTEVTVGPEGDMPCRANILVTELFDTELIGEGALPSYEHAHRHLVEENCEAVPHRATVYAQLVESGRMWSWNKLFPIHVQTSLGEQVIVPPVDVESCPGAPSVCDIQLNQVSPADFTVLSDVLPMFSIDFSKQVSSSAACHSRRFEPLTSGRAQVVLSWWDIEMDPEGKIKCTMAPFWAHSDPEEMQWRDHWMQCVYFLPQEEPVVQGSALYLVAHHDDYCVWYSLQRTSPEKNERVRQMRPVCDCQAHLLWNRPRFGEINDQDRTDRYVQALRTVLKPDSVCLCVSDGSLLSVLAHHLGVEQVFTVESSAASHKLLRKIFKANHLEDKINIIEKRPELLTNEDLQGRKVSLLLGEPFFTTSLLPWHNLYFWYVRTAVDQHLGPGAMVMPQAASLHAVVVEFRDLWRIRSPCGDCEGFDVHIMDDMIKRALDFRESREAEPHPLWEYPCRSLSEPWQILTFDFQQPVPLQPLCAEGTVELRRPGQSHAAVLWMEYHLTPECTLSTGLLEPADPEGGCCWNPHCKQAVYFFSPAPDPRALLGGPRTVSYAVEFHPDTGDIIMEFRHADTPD
Put plainly: Inhibition of human recombinant His-tagged PRMT7 extracted from Escherichia coli BL21 (DE3).

For experiment [2], the target named is T1, Protein arginine N-methyltransferase 7. Put plainly: Inhibition of human PRMT7 in HCT-116 cells assessed as reduction in HSP70 methylation. Type of experiment: cell-based.
Experiment [3] deals with MCF7. The experiment can be described thus: Antiproliferative activity against human MCF7 cells assessed as reduction in cell viability by MTT assay. Format: functional, cell-based. (Formazan colour is commonly taken as a measure of viable cells.)
Experiment [4] concerns KB. Put plainly: Antiproliferative activity against human KB cells assessed as reduction in cell viability by MTT assay. Format: functional, cell-based.
Experiment [5] has as its target T1, Protein arginine N-methyltransferase 7. Put plainly: Inhibition of human PRMT7 in HEK293T cells assessed as reduction in HSP70 methylation. Type of experiment: cell-based.
Experiment [6] in a line: Antiproliferative activity against human MEF cells assessed as reduction in cell viability by MTT assay. Format: functional, cell-based.
Experiment [7] concerns HepG2. Put plainly: Antiproliferative activity against human HepG2 cells assessed as reduction in cell viability by MTT assay. Type of experiment: functional, cell-based.
In experiment [8] the target is T1, Protein arginine N-methyltransferase 7. The experiment can be described thus: Inhibition of full length human recombinant PRMT7 extracted from Sf9 cells using […] as substrate incubated for 1 hr by TopCount scintillation proximity assay. Type of experiment: cell-free. Background: Scintillation proximity formats need no separation of bound from free tracer.

The target is the same in experiment [9]. The experiment can be described thus: Inhibition of human PRMT7.
Experiment [10] addresses Protein arginine N-methyltransferase 5 (Homo sapiens, UniProt O14744). Put plainly: Inhibition of human PRMT5.

SMILES strings stand for the structures.

Sequence of Protein arginine N-methyltransferase 5 (O14744 whole entry): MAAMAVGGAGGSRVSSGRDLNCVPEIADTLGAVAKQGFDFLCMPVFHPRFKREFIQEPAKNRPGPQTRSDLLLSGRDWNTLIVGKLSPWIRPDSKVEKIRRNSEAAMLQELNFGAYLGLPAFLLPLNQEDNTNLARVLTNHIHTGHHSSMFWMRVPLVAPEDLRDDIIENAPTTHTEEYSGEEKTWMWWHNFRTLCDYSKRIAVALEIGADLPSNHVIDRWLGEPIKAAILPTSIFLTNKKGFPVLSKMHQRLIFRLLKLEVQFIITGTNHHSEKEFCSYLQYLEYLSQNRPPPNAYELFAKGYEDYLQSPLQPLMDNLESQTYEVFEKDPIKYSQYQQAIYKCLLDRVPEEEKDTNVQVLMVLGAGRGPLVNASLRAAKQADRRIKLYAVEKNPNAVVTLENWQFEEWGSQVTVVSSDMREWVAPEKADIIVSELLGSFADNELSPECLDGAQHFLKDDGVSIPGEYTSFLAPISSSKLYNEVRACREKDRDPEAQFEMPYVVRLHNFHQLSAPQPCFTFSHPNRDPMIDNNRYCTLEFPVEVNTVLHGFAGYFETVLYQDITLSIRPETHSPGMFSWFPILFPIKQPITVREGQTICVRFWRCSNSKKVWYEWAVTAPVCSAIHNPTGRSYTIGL

Usually IC50 stands for the point on the concentration scale where inhibition reaches its midpoint. As to `C/N=C(\N)N/N=C(\C)c1ccc2oc3ccc(/C(C)=N/N/C(N)=N/C)cc3c2c1`, the IC50 in experiment [1] amounted to 23.3 µM.
Consider `CC1=C(C)C(=O)C(C(C)(C)CC(=O)N(CCCCSC[C@H]2O[C@@H](n3cnc4c(N)ncnc43)[C@H](O)[C@@H]2O)Cc2cccc(-c3ccc(Cl)cc3)c2)=C(C)C1=O`, for which the IC50 was determined as 2.4 µM in experiment [2]; 2.2 µM in experiment [3]; 2.2 µM in [4]; 2.4 µM in experiment [5]; 28.4 µM in [6]; 2.2 µM in experiment [7].
For `Nc1ncnc2c1ncn2[C@@H]1O[C@H](CSCCCCNCc2cccc(-c3ccc(Cl)cc3)c2)[C@@H](O)[C@H]1O`, the IC50 in [8] was 2.5 µM.
In the case of `COc1cc(-c2ncc(F)c(Nc3ccc4nc(C)cc(N)c4c3)n2)cc(OC)c1OC`, the IC50 in experiment [9] was 5 µM; in experiment [10] it was 50 µM.
